Patent US6376469B1, “Crystalline amrubicin hydrochloride” (Sumitomo Pharmaceuticals Company, Limited, priority 1997, dated 2002)

Experiment: Preservation stability of crystalline amrubicin hydrochlorides (80° C., 24 hours, HPLC)
Format: physicochemical
Settings: for remaining amount (%): crystals kept at 80° C. for 24 hours, measured by high performance liquid chromatography, amount at the starting time defined as 100%, hydrochloride
Procedure: Preservation stability of crystalline amrubicin hydrochlorides
β-Type crystalline amrubicin hydrochloride obtained in Example 1 and α-type crystalline amrubicin hydrochloride obtained in Reference example 1 were each kept at a temperature of 80° C. for 24 hours. Thereafter, the remaining amount of crystals were measured using high performance liquid chromatography. The amount at the starting time is defined as 100%.

For `CC(=O)[C@]1(N)Cc2c(O)c3c(c(O)c2[C@@H](OC2CC(O)C(O)CO2)C1)C(=O)c1ccccc1C3=O.Cl` (stereo partly drawn) [α-type crystalline, (7S,9S)-9-acetyl-9-amino-7-[(2-deoxy-β-D-erythro-pentapyranosyl)oxy]-7,8,9, 10-tetrahydro-6,11-dihydroxy-5,12-naphthacenedione hydrochloride, reference compound], the “remaining amount (%)” value was 92.2%.

For `CC(=O)[C@]1(N)Cc2c(O)c3c(c(O)c2[C@@H](OC2CC(O)C(O)CO2)C1)C(=O)c1ccccc1C3=O.Cl` (stereo partly drawn) [β-type crystalline, (7S,9S)-9-acetyl-9-amino-7-[(2-deoxy-β-D-erythro-pentapyranosyl)oxy]-7,8,9, 10-tetrahydro-6,11-dihydroxy-5,12-naphthacenedione hydrochloride], the “thermal stability (comparison of crystal forms)” value (conclusion from Table 2, 80° C. for 24 hours) was “higher thermal stability than α-type crystalline amrubicin hydrochloride” and the “remaining amount (%)” value was 100.4%.
